Data reported in US20110306922A1, “LIGHT-EMITTING DEVICES FOR PHOTOTHERAPY” (priority 2010, published 2011).

Key:
[1] = test system: CHO-K1 (Chinese Hamster Ovarian Cancer, ATCC, CRL-2243) cell line; assay: cells; settings: Cricetulus griseus, CHO-K1, light or radiation study, read-out: cells destroyed (cell viability, light dosimetry)
[2] = test system: CHO-K1 (Chinese Hamster Ovarian Cancer, ATCC, CRL-2243) cell line
pathological myopia = assay: Intravenous verteporphin plus red OLED illumination of the retina, pathological myopia; format: in vivo, person; settings: about 6 mg/m^2 i.v.; about 20 mW/cm^2 for about 42 minutes, about 50 J/cm2
Protocol: (§1) Verteporphin is intravenously injected, over a period of about 10 minute at a rate of about 3 mL/min, to a person suffering from pathological myopia. The verteporphin (7.5 mL of 2 mg/mL reconstituted solution, available as Visudyne® from Novartis) is diluted with 5% dextrose to a volume of 30 mL using a sufficient quantity of the reconstituted verteporphin so that the total dose injected is about 6 mg/m^2 of body surface.
After treatment, the patient's vision is anticipated to be stabilized. The treatment is repeated as needed.

[3] = test system: presumed ocular histoplasmosis; parameters: species or system person; settings: in vivo, iv
[4] = test system: age-related macular degeneration; assay: Intravenous verteporphin plus red OLED illumination of the retina, age-related macular degeneration; format: in vivo, person; settings: about 6 mg/m^2 i.v.; about 20 mW/cm^2 for about 42 minutes, about 50 J/cm
Protocol: as §1, with “minutes” for “minute”, “age-related macular degeneration.” for “pathological myopia.”
The treatment is repeated as needed.

SMILES	cytotoxicity at 1000 µM [1] [%]	generation of PpIX (fluorescence emission at 635 nm) ([2]; ALA 0.5 mM, 1 mM, 2 mM, incubated about 16 hrs at 37° C.)	optical microscope images of the cells: healthy leafy type cells transform to droplet type ([2]; after 25 J/cm^2 red light (630 nm) irradiation from OLED)	patient's vision (pathological myopia)	patient's vision [3]	patient's vision [4]
NCC(=O)CCC(=O)O [ALA, 5-aminolevulinic acid]	~90	confirmed	significant cell death	–	–	–
C=Cc1c(C)c2cc3nc(cc4[nH]c(cc5nc(cc1[nH]2)C(C)=C5CCC(=O)O)c(CCC(=O)OC)c4C)[C@@]1(C)C3=CC=C(C(=O)OC)[C@H]1C(=O)OC [Verteporphin]	–	–	–	stabilized	stabilized	stabilized
